For 27 compounds, T/C results are on record in PubChem BioAssay AID330 (DTP/NCI, 2004).

The test deals with P388 leukemia ip, CD2F1 mice, survival T/C. Kind of test: NCI In Vivo Anticancer Drug Screen. Data for tumor model P388 Leukemia (intraperitoneal) in CD2F1 (CDF1) mice. Particulars: endpoint: median survival time, higher = longer survival. The essentials:
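Mice carrying the transplanted tumor received test compound or vehicle. Survival was recorded in each group, and the value is the treated-group measurement divided by that of the vehicle-treated control group.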

[1] abbreviates: dose: 25.0 mg/kg/injection, schedule: Q01DX009 (ip), vehicle: saline with Tween-80.
Setting [2] is: dose: 50.0 mg/kg/injection, schedule: Q01DX009 (ip), vehicle: saline with Tween-80.
Where [3] appears, read: dose: 100.0 mg/kg/injection, schedule: Q01DX009 (ip), vehicle: saline with Tween-80.
Where [4] appears, read: dose: 200.0 mg/kg/injection, schedule: Q01DX009 (ip), vehicle: saline with Tween-80.
The mark [5] stands for this setting: dose: 400.0 mg/kg/injection, schedule: Q01DX009 (ip), vehicle: saline with Tween-80.
Where [6] appears, read: dose: 6.25 mg/kg/injection, schedule: Q01DX009 (ip), vehicle: saline.
[7] abbreviates: dose: 12.5 mg/kg/injection, schedule: Q01DX009 (ip), vehicle: saline.
[8] abbreviates: dose: 100.0 mg/kg/injection, schedule: Q04DX002 (ip), vehicle: saline with Tween-80.
Setting [9] is: dose: 200.0 mg/kg/injection, schedule: Q04DX002 (ip), vehicle: saline with Tween-80.
Where [10] appears, read: dose: 60.0 mg/kg/injection, schedule: Q01DX005 (ip), vehicle: saline with Tween-80.
[11] abbreviates: dose: 120.0 mg/kg/injection, schedule: Q01DX005 (ip), vehicle: saline with Tween-80.
[12] abbreviates: dose: 240.0 mg/kg/injection, schedule: Q01DX005 (ip), vehicle: saline with Tween-80.
[13] abbreviates: dose: 100.0 mg/kg/injection, schedule: Q01DX009 (ip), vehicle: Klucel (hydroxypropylcellulose) (HPC).
[14] abbreviates: dose: 200.0 mg/kg/injection, schedule: Q01DX009 (ip), vehicle: Klucel (hydroxypropylcellulose) (HPC).
The mark [15] stands for this setting: dose: 50.0 mg/kg/injection, schedule: Q01DX005 (ip), vehicle: Klucel (hydroxypropylcellulose) (HPC).
Where [16] appears, read: dose: 100.0 mg/kg/injection, schedule: Q01DX005 (ip), vehicle: Klucel (hydroxypropylcellulose) (HPC).
Where [17] appears, read: dose: 200.0 mg/kg/injection, schedule: Q01DX005 (ip), vehicle: Klucel (hydroxypropylcellulose) (HPC).
Setting [18] is: dose: 50.0 mg/kg/injection, schedule: Q01DX009 (ip), vehicle: saline.
[19] abbreviates: dose: 100.0 mg/kg/injection, schedule: Q01DX009 (ip), vehicle: saline.
[20] abbreviates: dose: 12.5 mg/kg/injection, schedule: Q01DX009 (ip), vehicle: saline with Tween-80.
Where [21] appears, read: dose: 25.0 mg/kg/injection, schedule: Q01DX009 (ip), vehicle: saline.

Where “and” joins values, the source holds several entries; their conditions need not be identical. Equal entries are not always repeated. Toxic doses and inconclusive results are not listed.

For the compound `C1CC[N-]CC1.C1CC[N-]CC1.[Cl][Pt+2][Cl]`, the T/C (dose: 25.0 mg/kg/injection, schedule: Q01DX005 (ip), vehicle: Klucel (hydroxypropylcellulose) (HPC)) is 119 % of control and 120 % of control.

As for `CCCCOP(=O)(CCCC)OCCCC.CCCCOP(=O)(CCCC)OCCCC.CCCCOP(=O)(CCCC)OCCCC.CCCCOP(=O)(CCCC)OCCCC.O.O.[Co+2].[O-][Cl+3]([O-])([O-])O`, the T/C was 87 % of control under setting [1]; 100 % of control and 104 % of control under setting [2]; 116 % of control under setting [3].

As to `CSCCCNC(=O)c1csc(CCNC(=O)c2ccccc2)n1`, the T/C is, setting by setting: under setting [3], 104 % of control; under setting [4], 109 % of control; under setting [5], 104 % of control.

As for `COC(=O)CCCCCCCCCCN(CCCl)CCCl`, the T/C is, setting by setting: under setting [6], 160 % of control and 169 % of control; under setting [7], 89 % of control.

Turning to `CCC(CO)N=C(C1=C(O)c2ccccc2C1=O)c1ccccc1` (stereo unspecified), the T/C is 104 % of control under setting [8] and 92 % of control under setting [9].

For `CC12N=C1CCCCCCCCCCCC2=O` (stereo unspecified), the T/C by setting is: under setting [10], 101 % of control; under setting [11], 100 % of control; under setting [12], 108 % of control.

In the case of `CCOc1cc2c(=O)[nH]cnc2c(OCC)c1OCC`, the T/C under setting [2] is 106 % of control, the T/C under setting [3] was 100 % of control and the T/C under setting [4] was 98 % of control.

Take `Ic1sc(I)c(I)c1I`: the T/C runs as follows: (dose: 6.25 mg/kg/injection, schedule: Q01DX001 (ip), vehicle: saline with Tween-80) 100 % of control; (dose: 12.5 mg/kg/injection, schedule: Q01DX001 (ip), vehicle: saline with Tween-80) 100 % of control; (dose: 25.0 mg/kg/injection, schedule: Q01DX001 (ip), vehicle: saline with Tween-80) 105 % of control.

Turning to `CC1(C)OC2CC(=O)OCC23C1CC(=O)C1(C)C3CCC2(C)C(c3ccoc3)OC(=O)C3OC321` (stereo unspecified), the T/C was 100 % of control (dose: 50.0 mg/kg/injection, schedule: Q01DX010 (ip), vehicle: saline); 95 % of control (dose: 100.0 mg/kg/injection, schedule: Q01DX010 (ip), vehicle: saline); 95 % of control (dose: 200.0 mg/kg/injection, schedule: Q01DX010 (ip), vehicle: saline).

As to `Cc1ccccc1N=Nc1c(N)ccc2ccccc12`, the T/C was 105 % of control under setting [13]; 111 % of control under setting [14]; 109 % of control (dose: 400.0 mg/kg/injection, schedule: Q01DX009 (ip), vehicle: Klucel (hydroxypropylcellulose) (HPC)).

Consider `CCN(CC)CCOC(=O)c1ccc(N)c2ccccc12`, for which the T/C by setting is: (dose: 50.0 mg/kg/injection, schedule: Q01DX005 (ip), vehicle: saline with Tween-80) 103 % of control; (dose: 100.0 mg/kg/injection, schedule: Q01DX005 (ip), vehicle: saline with Tween-80) 100 % of control.

With `O=C(O)/C(Br)=C(/Br)C(=O)O`, the T/C was 106 % of control under setting [8] and 100 % of control under setting [9].

With `O=C1C(=C2C=CN(CCN3CCCCC3)C=C2)C(=O)c2ccccc21`, the T/C is 100 % of control (dose: 50.0 mg/kg/injection, schedule: Q01DX009 (ip), vehicle: Klucel (hydroxypropylcellulose) (HPC)); 100 % of control under setting [13]; 87 % of control under setting [14].

Turning to `C[C@H]1CC[C@@H]2O[C@@]23C(=O)OC2OC(C)(C)[C@@H]([C@H]2O)[C@]13C`, the T/C runs as follows: under setting [15], 102 % of control; under setting [16], 96 % of control; under setting [17], 107 % of control.

On to `CC(C)OC(=O)C1(N)CCCC1`, for which the T/C is 97 % of control under setting [18]; 87 % of control under setting [19]; 95 % of control (dose: 100.0 mg/kg/injection, schedule: Q04DX003 (ip), vehicle: saline); 104 % of control (dose: 200.0 mg/kg/injection, schedule: Q04DX003 (ip), vehicle: saline).

For the compound `COn1cc(C(=O)O)c(=O)c2c3sc(=O)n(C)c3ccc21`, the T/C is, setting by setting: under setting [2], 101 % of control; under setting [3], 94 % of control; under setting [4], 99 % of control.

Consider `Cc1cc(O)c(C(c2ccncc2)c2c(O)cc(C)[nH]c2=O)c(=O)[nH]1`, for which the T/C under setting [2] was 102 % of control, the T/C under setting [3] is 95 % of control and the T/C under setting [4] is 94 % of control.

Take `C(=N\Nc1nn[nH]n1)/c1ccccc1`: the T/C is, setting by setting: (dose: 50.0 mg/kg/injection, schedule: Q01DX009 (ip), vehicle: suspension in saline) 98 % of control; (dose: 100.0 mg/kg/injection, schedule: Q01DX009 (ip), vehicle: suspension in saline) 97 % of control; (dose: 200.0 mg/kg/injection, schedule: Q01DX009 (ip), vehicle: suspension in saline) 104 % of control.

`CCOC(=O)c1cnn(-c2ccccc2)c1N`: the T/C under setting [20] is 99 % of control; the T/C under setting [7] was 99 % of control; the T/C under setting [1] is 109 % of control; the T/C under setting [21] was 102 % of control; the T/C under setting [2] is 101 % of control; the T/C under setting [18] is 99 % of control. Further, the T/C was 96 % of control under setting [3]; 103 % of control under setting [19]; 96 % of control under setting [4]; 94 % of control (dose: 200.0 mg/kg/injection, schedule: Q01DX009 (ip), vehicle: saline); 99 % of control under setting [5]; 105 % of control (dose: 400.0 mg/kg/injection, schedule: Q01DX009 (ip), vehicle: saline).

On to `CC1(C)N=C(N)N=C(N)N1c1ccc(Cl)cc1Cl`, for which the T/C by setting is: (dose: 12.0 mg/kg/injection, schedule: Q01DX005 (ip), vehicle: saline) 102 % of control; (dose: 25.0 mg/kg/injection, schedule: Q01DX005 (ip), vehicle: saline) 100 % of control; (dose: 50.0 mg/kg/injection, schedule: Q01DX005 (ip), vehicle: saline) 104 % of control and 98 % of control.

As to `CN1CCC(CN2c3ccccc3Sc3ccccc32)C1` (stereo unspecified), the T/C under setting [20] was 104 % of control, the T/C under setting [1] is 107 % of control and the T/C under setting [2] was 116 % of control.

In the case of `Cc1ncc(CO)c(CO)c1OCC(O)CN1CCN(c2ccc(F)cc2)CC1` (stereo unspecified), the T/C was 99 % of control under setting [10], 98 % of control under setting [11] and 104 % of control under setting [12].

Turning to `Cc1c2c(cc3c4ccccc4n(C)c13)C(=O)OC2=O`, the T/C (dose: 0.78 mg/kg/injection, schedule: Q01DX005 (ip), vehicle: Klucel (hydroxypropylcellulose) (HPC)) was 99 % of control; the T/C (dose: 1.56 mg/kg/injection, schedule: Q01DX005 (ip), vehicle: Klucel (hydroxypropylcellulose) (HPC)) was 93 % of control; the T/C (dose: 3.12 mg/kg/injection, schedule: Q01DX005 (ip), vehicle: Klucel (hydroxypropylcellulose) (HPC)) was 89 % of control; the T/C (dose: 6.25 mg/kg/injection, schedule: Q01DX005 (ip), vehicle: Klucel (hydroxypropylcellulose) (HPC)) is 89 % of control; the T/C under setting [15] is 89 % of control; the T/C under setting [16] is 88 % of control. Further, under setting [17], the T/C is 97 % of control.

Take `C/C(=N\NC(=S)NCc1ccccc1)c1nccnc1C`: the T/C was 104 % of control (dose: 3.13 mg/kg/injection, schedule: Q01DX005 (ip), vehicle: saline with Tween-80); 109 % of control and 112 % of control (dose: 6.25 mg/kg/injection, schedule: Q01DX005 (ip), vehicle: saline with Tween-80).

With `C[N+](C)(C)CCBr`, the T/C is, setting by setting: (dose: 3.12 mg/kg/injection, schedule: Q01DX009 (ip), vehicle: saline) 100 % of control; under setting [6], 104 % of control; under setting [7], 101 % of control; (dose: 12.5 mg/kg/injection, schedule: Q04DX003 (ip), vehicle: saline) 105 % of control; under setting [21], 101 % of control; (dose: 25.0 mg/kg/injection, schedule: Q04DX003 (ip), vehicle: saline) 100 % of control.

For `Cn1c(N)cc2nc3ccccc3n2c1=O`, the T/C under setting [10] was 96 % of control, the T/C under setting [11] is 92 % of control and the T/C under setting [12] was 89 % of control.

On to `CC(=O)NC(C(=O)O)C(C)(C)S` (stereo unspecified), for which the T/C reads like this: under setting [15], 100 % of control; under setting [16], 100 % of control; under setting [17], 95 % of control.
